The results in this text go back to patent US10987349B2, “Antitumor agent and bromodomain inhibitor” (FUJIFILM Corporation, priority 2016, dated 2021).

In one test the target is T1, BRD2 BD1 (Homo sapiens, UniProt P25440).
T1 construct: BRD2 BD1, BRD3 BD1 and BRD4 BD1 (Cisbio); purchased Cisbio
Kind of test: Binding assay, BRD2 BD1 to acetylated histone H4 Peptide-Biotin (EPIgeneous Binding Domain Kit A). Particulars: test compound at 300 nmol/L; read-out: Binding inhibition percentage BRD2 BD1. The procedure: (§1) BRD2 BD1, BRD3 BD1 and BRD4 BD1 (Cisbio), [Lys(Ac)5/8/12/16]-Histone H4(1-25)-GSGSK (Biotin) (hereinafter referred to as “Peptide-Biotin,” AnaSpec), and EPIgeneous (registered trademark) Binding Domain Kit A (Cisbio) were used to carry out an assay. That is to say, per well, 4 μL of BRD2 BD1, BRD3 BD1 or BRD4 BD1, which was adjusted to 20 nmol/L with Diluent buffer; 4 μL of 25 nmol/L Peptide-Biotin; 2 μL of Dilution buffer (Cisbio) containing dimethyl sulfoxide (DMSO) or a test compound that was serially diluted with DMSO; 5 μL of 2.5 nmol/L Streptavidin-d2; and 5 μL of Anti-Gst-Eu+^3+ Cryptate Conjugate 50-fold diluted with Detection Buffer were added to a 384-well plate (Corning).
(§2) The obtained mixture was left at rest at room temperature for 20 hours, and thereafter, the fluoresence intensity at 665 nm and 620 nm was measured using Envision plate reader (Perkin Elmer), so that the inhibition percentage (%) of the test compound against the binding of a bromodomain in a bromodomain-containing protein to Peptide-Biotin was calculated. Binding inhibition percentage (%)=[1−{(fluorescence intensity at 665 nm of test compound−added well)/(fluorescence intensity at 620 nm of test compound−added well)}/{(fluorescence intensity at 665 nm of DMSO−added well)/(fluorescence intensity at 665 nm of DMSO−added well)}]×100
(§3) Moreover, using Graphpad prism 5 (GraphPad software), 50% inhibitory concentration [IC50 (nmol/L)] was calculated according to a non-linear regression analysis (log (inhibitor) vs. response—Variable slope (four parameters)).
(§4) Regarding other test compounds, each compound was diluted with DMSO to a final concentration of 300 nmol/L by the same method as that described above, and the binding inhibition percentage (%) of each test compound at 300 nmol/L against the binding of bromodomain in a bromodomain-containing protein to acetylated histone was calculated.

The next test concerns the target T2, BRD2 BD2 (Homo sapiens, UniProt P25440).
T2 construct: BRD2 BD2, BRD3 BD2 and BRD4 BD2 (Cisbio); purchased Cisbio
Kind of test: Binding assay, BRD2 BD2 to acetylated histone H4 Peptide-Biotin (EPIgeneous Binding Domain Kit B). The note with it: test compound at 300 nmol/L; read-out: Binding inhibition percentage BRD2 BD2. As for the experimental part: (§5) Moreover, BRD2 BD2, BRD3 BD2 and BRD4 BD2 (Cisbio), Peptide-Biotin (AnaSpec), and EPIgeneous (registered trademark) Binding Domain Kit B (Cisbio) were used to carry out an assay. That is, per well, 4 μL of BRD2 BD2, BRD3 BD2 or BRD4 BD2, which was adjusted to 20 nmol/L with Diluent buffer; 4 μL of 250 nmol/L Peptide-Biotin; 2 μL of Dilution buffer (Cisbio) containing DMSO or a test compound that was serially diluted with DMSO; 5 μL of 25 nmol/L Streptavidin-XL665; 5 μL of Anti-Gst-Eu+^3+ Cryptate Conjugate 50-fold diluted with Detection Buffer were added to a 384-well plate (Corning).
as §2, §3, §4

In another test the target is T3, BRD3 BD1 (Homo sapiens, UniProt Q15059).
T3 construct: BRD2 BD1, BRD3 BD1 and BRD4 BD1 (Cisbio); purchased Cisbio
T3 sequence (Q15059 34-140 limits assumed): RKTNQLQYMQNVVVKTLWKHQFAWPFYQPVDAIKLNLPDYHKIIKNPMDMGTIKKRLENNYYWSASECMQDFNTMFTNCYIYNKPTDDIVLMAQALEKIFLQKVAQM
Kind of test: Binding assay, BRD3 BD1 to acetylated histone H4 Peptide-Biotin (EPIgeneous Binding Domain Kit A). The note with it: test compound at 300 nmol/L; read-out: Binding inhibition percentage BRD3 BD1. The procedure: as §1, §2, §3, §4

Another test has as its target T4, BRD3 BD2 (Homo sapiens, UniProt Q15059).
T4 construct: BRD2 BD2, BRD3 BD2 and BRD4 BD2 (Cisbio); purchased Cisbio
Kind of test: Binding assay, BRD3 BD2 to acetylated histone H4 Peptide-Biotin (EPIgeneous Binding Domain Kit B). Particulars: test compound at 300 nmol/L; read-out: Binding inhibition percentage BRD3 BD2. The procedure:
as §5, §2, §3, §4

In the next test the target is T5, BRD4 BD1 (Homo sapiens, UniProt O60885).
T5 construct: BRD2 BD1, BRD3 BD1 and BRD4 BD1 (Cisbio); purchased Cisbio
Kind of test: Binding assay, BRD4 BD1 to acetylated histone H4 Peptide-Biotin (EPIgeneous Binding Domain Kit A). The note with it: test compound at 300 nmol/L; read-out: Binding inhibition percentage BRD4 BD1. As for the experimental part: as §1, §2, §3, §4

For a further test, the target named is T6, BRD4 BD2 (Homo sapiens, UniProt O60885).
T6 construct: BRD2 BD2, BRD3 BD2 and BRD4 BD2 (Cisbio); purchased Cisbio
Kind of test: Binding assay, BRD4 BD2 to acetylated histone H4 Peptide-Biotin (EPIgeneous Binding Domain Kit B). The note with it: test compound at 300 nmol/L; read-out: Binding inhibition percentage BRD4 BD2. As for the experimental part: as §5, §2, §3, §4

T4 sequence (Q15059 306-415 limits assumed): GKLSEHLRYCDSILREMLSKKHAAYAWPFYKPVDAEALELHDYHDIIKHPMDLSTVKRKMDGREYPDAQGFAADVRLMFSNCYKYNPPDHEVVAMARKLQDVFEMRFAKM
T1 sequence (P25440 74-180 limits assumed): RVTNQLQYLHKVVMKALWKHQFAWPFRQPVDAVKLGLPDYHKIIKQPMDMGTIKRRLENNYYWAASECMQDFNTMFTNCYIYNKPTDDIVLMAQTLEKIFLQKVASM
T2 sequence (P25440 344-453 limits assumed): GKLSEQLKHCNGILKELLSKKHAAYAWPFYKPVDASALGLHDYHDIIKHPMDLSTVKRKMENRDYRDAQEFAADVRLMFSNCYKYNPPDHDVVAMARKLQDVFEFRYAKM

As to `CCn1c(=O)cc(N2CCOCC2)c2cc(-c3nccn3-c3ccccc3)ccc21` [Example 257, 1-ethyl-4-(morpholin-4-yl)-6-(1-phenyl-1H-imidazol-2-yl)quinolin-2(1H)-one], the inhibition at 0.3 µM at BRD2 BD1 was 84%; at BRD2 BD2, 85%; at BRD3 BD1, 92%; at BRD3 BD2, 91%; on BRD4 BD1, 95%; at BRD4 BD2 it was 88%.
As to `CCCCn1cc(-c2ccccc2)n(-c2ccc3c(c2)c(N2CCOCC2)cc(=O)n3CC)c1=O` [Example 264, 6-(3-butyl-2-oxo-5-phenyl-2,3-dihydro-1H-imidazol-1-yl)-1-ethyl-4-(morpholin-4-yl)quinolin-2(1H)-one], the inhibition at 0.3 µM at BRD2 BD1 was determined as 92%; at BRD2 BD2, 88%; at BRD3 BD1, 94%; at BRD3 BD2, 91%; on BRD4 BD1 it was 95%; on BRD4 BD2, 88%.
With `CCn1c(=O)cc(N2CCOCC2)c2cc(-n3cc(C)nc3-c3ccccc3)ccc21` [Example 256, 1-ethyl-6-(4-methyl-2-phenyl-1H-imidazol-1-yl)-4-(morpholin-4-yl)quinolin-2(1H)-one], the inhibition at 0.3 µM at BRD2 BD1 turned out to be 84%; at BRD2 BD2 it was 86%; at BRD3 BD1, 93%; on BRD3 BD2 it was 92%; at BRD4 BD1 it was 94%; on BRD4 BD2, 88%.
Consider `CCn1c(=O)cc(N2CCOCC2)c2cc(-c3cnn(C)c3-c3ccccc3)ccc21` [Example 18, 1-Ethyl-6-(1-methyl-5-phenyl-1H-pyrazol-4-yl)-4-(morpholin-4-yl)quinolin-2(1H)-one], for which the inhibition at 0.3 µM at BRD2 BD1 amounted to 89%; at BRD2 BD2 it was 86%; at BRD3 BD1, 93%; at BRD3 BD2, 88%; on BRD4 BD1 it was 94%; on BRD4 BD2, 85%.
Turning to `CCn1c(=O)cc(N2CCOCC2)c2cc(N3C(=O)CC[C@H]3c3ccccc3)ccc21` [Example 253, 1-ethyl-4-(morpholin-4-yl)-6-((5S)-2-oxo-5-phenylpyrrolidin-1-yl)quinolin-2(1H)-one], the inhibition at 0.3 µM at BRD2 BD1 turned out to be 70%; on BRD2 BD2, 87%; on BRD3 BD1, 90%; at BRD3 BD2, 89%; on BRD4 BD1 it was 92%; at BRD4 BD2, 85%.
For `CCn1c(=O)cc(N2CCOCC2)c2cc(-c3cccnc3-c3ccccc3)ccc21` [Example 279, 1-ethyl-4-(morpholin-4-yl)-6-(2-phenylpyridin-3-yl)quinolin-2(1H)-one], the inhibition at 0.3 µM was determined as 91% on BRD2 BD1; 88% on BRD2 BD2; 93% on BRD3 BD1; 91% on BRD3 BD2; 93% on BRD4 BD1; 89% at BRD4 BD2.
For the compound `CCn1c(=O)cc(C2CCN(CCO)CC2)c2cc(C(=O)N(C)c3ccc4c(c3)CCCCC4)ccc21` [Example 191], the inhibition at 0.3 µM on BRD2 BD1 turned out to be 94%; on BRD2 BD2, 87%; on BRD3 BD1, 95%; on BRD3 BD2 it was 92%; at BRD4 BD1 it was 94%; at BRD4 BD2, 88%.
Take `CCn1c(=O)cc(N2CCOCC2)c2cc(-n3c(-c4ccc(C(F)(F)F)cc4)c[nH]c3=O)ccc21` [Example 272, 1-ethyl-6-(2-oxo-5-(4-(trifluoromethyl)phenyl)-2,3-dihydro-1H-imidazol-1-yl)-4-(morpholin-4-yl)quinolin-2(1H)-one]: the inhibition at 0.3 µM is 87% at BRD2 BD1; 89% on BRD2 BD2; 93% at BRD3 BD1; 91% on BRD3 BD2; 93% at BRD4 BD1; 90% at BRD4 BD2.
As for `CCn1c(=O)cc(N2CCOCC2)c2cc(-n3c(-c4ccc(C(F)(F)F)cc4)cn(C)c3=O)ccc21` [Example 270, 1-ethyl-6-(3-methyl-2-oxo-5-(4-(trifluoromethyl)phenyl)-2,3-dihydro-1H-imidazol-1-yl)-4-(morpholin-4-yl)quinolin-2(1H)-one], the inhibition at 0.3 µM on BRD2 BD1 came to 87%; at BRD2 BD2, 89%; at BRD3 BD1 it was 94%; at BRD3 BD2 it was 91%; at BRD4 BD1 it was 94%; at BRD4 BD2 it was 89%.
In the case of `CCn1c(=O)cc(C2CC2)c2cc(-n3c(-c4ccc(Cl)cc4)cn(C)c3=O)ccc21` [Example 269, 6-(5-(4-chlorophenyl)-3-methyl-2-oxo-2,3-dihydro-1H-imidazol-1-yl)-4-cyclopropyl-1-ethylquinolin-2(1H)-one], the inhibition at 0.3 µM worked out at 36% on BRD2 BD1; 85% at BRD2 BD2; 58% on BRD3 BD1; 92% at BRD3 BD2; 71% at BRD4 BD1; 87% at BRD4 BD2.
On to `CCn1c(=O)cc(C2CCC(O)CC2)c2cc(C(=O)N(C)c3ccc(Cl)cc3)ccc21` (stereo not drawn) [Example 286, N-(4-chlorophenyl)-1-ethyl-4-(4-hydroxycyclohexyl)-N-methyl-2-oxo-1,2-dihydroquinoline-6-carboxamide], for which the inhibition at 0.3 µM on BRD2 BD1 worked out at 91%; at BRD2 BD2 it was 89%; at BRD3 BD1, 94%; on BRD3 BD2, 93%; on BRD4 BD1, 95%; at BRD4 BD2, 89%.
For the compound `CCn1c(=O)cc(C2CCN(C)CC2)c2cc(C(=O)N(C)c3ccc(C)c(F)c3)ccc21` [Example 292, 1-ethyl-N-(3-fluoro-4-methylphenyl)-N-methyl-4-(1-methylpiperidin-4-yl)-2-oxo-1,2-dihydroquinoline-6-carboxamide], the inhibition at 0.3 µM at BRD2 BD1 was 93%; on BRD2 BD2 it was 81%; at BRD3 BD1, 94%; on BRD3 BD2 it was 87%; on BRD4 BD1, 95%; on BRD4 BD2, 85%.
As to `CCn1c(=O)cc(N2CCOCC2)c2cc(-c3ccccc3-c3ccccc3)ccc21` [Example 258, 6-(biphenyl-2-yl)-1-ethyl-4-(morpholin-4-yl)quinolin-2(1H)-one], the inhibition at 0.3 µM is 26% at BRD2 BD1; 81% at BRD2 BD2; 67% at BRD3 BD1; 83% at BRD3 BD2; 64% at BRD4 BD1; 72% at BRD4 BD2.
On to `CCn1c(=O)cc(C2CC2)c2cc(-c3cccnc3-c3ccccc3)ccc21` [Example 278, 4-cyclopropyl-1-ethyl-6-(2-phenylpyridin-3-yl)quinolin-2(1H)-one], for which the inhibition at 0.3 µM came out at 83% at BRD2 BD1; 89% at BRD2 BD2; 94% on BRD3 BD1; 91% on BRD3 BD2; 93% at BRD4 BD1; 89% on BRD4 BD2.
`CCn1c(=O)cc(C)c2cc(-c3cccnc3-c3ccccc3)ccc21` [Example 291, 1-ethyl-4-methyl-6-(2-phenylpyridin-3-yl)quinolin-2(1H)-one]: the inhibition at 0.3 µM at BRD2 BD1 turned out to be 64%; at BRD2 BD2 it was 83%; at BRD3 BD1 it was 88%; at BRD3 BD2, 91%; at BRD4 BD1, 85%; on BRD4 BD2, 84%.
